Data as given in BindingDB's records for doi:10.7270/Q2K64GGJ (University of Pittsburgh, 2006).

target: T1, Dual specificity protein phosphatase 1 (Homo sapiens, UniProt P28562); assay: DUSP1 dephosphorylation activity inhibition – biochemical, in vitro, dose response, specificity testing, selectivity assay, confirmation (AID 442)
T1 sequence (P28562 whole entry): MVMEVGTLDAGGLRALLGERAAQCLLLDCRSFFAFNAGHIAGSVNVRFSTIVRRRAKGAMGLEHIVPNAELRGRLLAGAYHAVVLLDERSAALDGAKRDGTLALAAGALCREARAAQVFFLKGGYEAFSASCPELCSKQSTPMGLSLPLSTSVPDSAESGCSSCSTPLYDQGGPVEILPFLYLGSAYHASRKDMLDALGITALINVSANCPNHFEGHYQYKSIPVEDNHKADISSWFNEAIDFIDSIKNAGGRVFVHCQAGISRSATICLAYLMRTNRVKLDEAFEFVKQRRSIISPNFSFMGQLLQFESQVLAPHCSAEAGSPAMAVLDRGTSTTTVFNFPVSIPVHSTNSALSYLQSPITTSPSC

Compared with CCCCC[C@H](O)C=C[C@H]1C=CC(=O)[C@@H]1C/C=C\CCCC(=O)O [(Z)-7-[(1R,5S)-2-oxidanylidene-5-[(E,3S)-3-oxidanyloct-1-enyl]cyclopent-3-en-1-yl]hept-5-enoic acid], Cc1ccc2c(c1C)NC(C(=O)O)C1CC=CC21 (stereo not given) is 1.7-fold higher in IC50: 23.3 µM for the first, 40.3 µM for the second.

COc1ccc(Cn2c(C)nc3c(c2=O)c2nc4ccccc4nc2n3Cc2ccco2)cc1 [MLS000079944] and CC(C)Cn1c(N)c(C(=O)COC(=O)c2cc(-c3ccco3)nc3ccccc23)c(=O)n(C)c1=O [2-(2-furanyl)-4-quinolinecarboxylic acid [2-[4-amino-1-methyl-3-(2-methylpropyl)-2,6-dioxo-5-pyrimidinyl]-2-oxoethyl] ester] are within 1.5-fold of each other in IC50: 18.1 µM for the first, 16.8 µM for the second.

CCn1nc(-c2ccccc2)nc2c(=O)n(C)c(=O)nc1-2 [1-Ethyl-6-methyl-3-phenyl-1H-pyrimido[5,4-e][1,2,4]triazine-5,7-dione] gave an IC50 of 0.19 µM.
